The numbers were not newly measured in US20100055173A1, “RELEASE OF STATINS IN THE INTESTINE” (priority 2006, published 2010), which cites them from elsewhere.

The target of one data set is T1, HMG-CoA reductase (Homo sapiens, UniProt P04035).
T1 sequence (P04035 1-888): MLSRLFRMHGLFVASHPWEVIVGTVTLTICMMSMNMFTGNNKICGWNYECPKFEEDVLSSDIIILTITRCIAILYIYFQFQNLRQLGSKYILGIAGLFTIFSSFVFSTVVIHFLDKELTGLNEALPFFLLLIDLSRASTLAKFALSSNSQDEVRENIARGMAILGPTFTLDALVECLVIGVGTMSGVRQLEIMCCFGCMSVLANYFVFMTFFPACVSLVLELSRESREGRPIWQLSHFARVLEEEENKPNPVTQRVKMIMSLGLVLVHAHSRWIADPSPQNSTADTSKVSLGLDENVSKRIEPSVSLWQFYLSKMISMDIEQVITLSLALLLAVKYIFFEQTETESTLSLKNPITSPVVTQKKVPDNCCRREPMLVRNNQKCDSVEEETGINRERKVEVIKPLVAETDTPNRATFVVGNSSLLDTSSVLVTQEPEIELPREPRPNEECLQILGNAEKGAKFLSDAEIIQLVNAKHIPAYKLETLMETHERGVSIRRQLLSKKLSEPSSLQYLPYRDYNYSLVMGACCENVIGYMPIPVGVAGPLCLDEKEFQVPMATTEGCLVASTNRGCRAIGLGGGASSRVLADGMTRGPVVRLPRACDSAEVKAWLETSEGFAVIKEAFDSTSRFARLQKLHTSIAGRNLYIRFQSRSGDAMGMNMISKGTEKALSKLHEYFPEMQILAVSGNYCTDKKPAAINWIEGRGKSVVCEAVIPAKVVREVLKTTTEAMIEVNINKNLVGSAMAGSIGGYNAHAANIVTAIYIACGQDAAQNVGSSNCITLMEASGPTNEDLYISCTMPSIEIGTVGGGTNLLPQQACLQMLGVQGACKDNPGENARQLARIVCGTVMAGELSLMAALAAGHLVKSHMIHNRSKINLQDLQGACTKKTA
Conditions: considering the beta-hydroxy acid form as the drug.

Another data set has as its system plasma proteins. To be noted: primarily to albumin.

Each structure is given as a SMILES string. Read-outs that look alike come from different tables or passages of the source.

For `CCC(C)(C)C(=O)OC1CC(C)(O)C=C2C=CC(C)C(CCC3CC(O)CC(=O)O3)C21` (stereo not drawn) [6-beta-hydroxy simvastatin], the “HMG-CoA reductase activity retained” value on HMG-CoA reductase is listed as approximately 50%.
In the case of `CCC(C)(C)C(=O)O[C@H]1C[C@@H](CO)C=C2C=C[C@H](C)[C@H](CC[C@@H]3C[C@@H](O)CC(=O)O3)[C@H]21` [6-beta-hydroxymethyl, 6-beta-hydroxymethyl simvastatin], the “HMG-CoA reductase activity retained” value at HMG-CoA reductase is “approximately 40%”.
As for `CCC(C)(C)C(=O)O[C@H]1C[C@@H](C)C=C2C=C[C@H](C)[C@H](CC[C@@H](O)C[C@@H](O)CC(=O)O)[C@H]21` [open hydroxyl acid form, β-hydroxyacid-simvastatin], the “bound to plasma proteins” value in the data set with plasma proteins was 94.5%.
Take `CCC(C)(C)C(=O)O[C@H]1C[C@@H](C)C=C2C=C[C@H](C)[C@H](CC[C@@H]3C[C@@H](O)CC(=O)O3)[C@H]21` [simvastatin]: the “bound to plasma proteins” value in the data set on plasma proteins is given as “More than 98%”; with plasma proteins (listed as Simvastatin), “more than 95%”.
